Source: patent US10154988B2, “Methods and compositions for treating schizophrenia” (The Johns Hopkins University, priority 2012, dated 2018)
Like-named read-outs stand apart in the source and are kept apart here.

Legend:
aged-impaired (AI) rats = assay: eight-arm Radial Arm Maze task, one-hour delay (levetiracetam, valproate, combination); format: in vivo, rat; settings: for average no. of errors ± SEM in retention test: one-hour delay, vehicle 2.00±0.42; for reducing the number of errors in the radial arm maze: levetiracetam on its own
Experimental: The effects of levetiracetam on the spatial memory retention of aged-impaired (AI) rats are assessed in a Radial Arm Maze (RAM) behavioral task using vehicle control and five different dosage levels of levetiracetam (1.25 mg/kg/day, 2.5 mg/kg/day, 5 mg/kg/day, 10 mg/kg/day and 20 mg/kg/day). RAM behavioral tasks are preformed on ten AI rats. All six treatment conditions are tested on all ten rats, as described above for the MWM test. The RAM apparatus used consists of eight equidistantly-spaced arms. An elevated maze arm (7 cm width×75 cm length) projects from each facet of an octagonal center platform (30 cm diameter, 51.5 cm height). Clear side walls on the arms are 10 cm high and are angled at 65° to form a trough. A food well (4 cm diameter, 2 cm deep) is located at the distal end of each arm. Froot Loops™ (Kellogg Company) are used as rewards. Blocks constructed of Plexiglas™ (30 cm height×12 cm width) can be positioned to prevent entry to any arm. Numerous extra maze cues surrounding the apparatus are also provided. The AI rats are initially subjected to a pre-training test (Chappell et al. Neuropharmacology 37: 481-487, 1998). The pre-training test consists of a habituation phase (4 days), a training phase on the standard win-shift task (18 days) and another training phase (14 days) in which a brief delay is imposed between presentation of a subset of arms designated by the experimenter (e.g., 5 arms available and 3 arms blocked) and completion of the eight-arm win-shift task (i.e., with all eight arms available). In the habituation phase, rats are familiarized to the maze for an 8-minute session on four consecutive days. In each of these sessions food rewards are scattered on the RAM, initially on the center platform and arms and then progressively confined to the arms. After this habituation phase, a standard training protocol is used, in which a food pellet is located at the end of each arm. Rats receive one trial each day for 18 days. Each daily trial terminates when all eight food pellets have been obtained or when either 16 choices are made or 15 minutes had elapsed. After completion of this training phase, a second training phase is carried out in which the memory demand is increased by imposing a brief delay during the trial. At the beginning of each trial, three arms of the eight-arm maze are blocked. Rats are allowed to obtain food on the five arms to which access is permitted during this initial ‘information phase’ of the trial. Rats are then removed from the maze for 60 seconds, during which time the barriers on the maze are removed, thus allowing access to all eight arms. Rats are then placed back onto the center platform and allowed to obtain the remaining food rewards during this ‘retention test’ phase of the trial. The identity and configuration of the blocked arms varies across trials. The number of “errors” the AI rats make during the retention test phase is tracked. An error occurs in the trial if the rats enter an arm from which food had already been retrieved in the pre-delay component of the trial, or if it re-visits an arm in the post-delay session that has already been visited. After completion of the pre-training test, rats are subjected to trials with more extended delay intervals, i.e., a one-hour delay, between the information phase (presentation with some blocked arms) and the retention test (presentation of all arms). During the delay interval, rats remain off to the side of the maze in the testing room, on carts in their individual home cages. AI rats are pretreated 30-40 minutes before daily trials with a one-time shot of the following six conditions: 1) vehicle control (0.9% saline solution); 2) levetiracetam (1.25 mg/kg/day); 3) levetiracetam (2.5 mg/kg/day); 4) levetiracetam (5 mg/kg/day); 5) levetiracetam (10 mg/kg/day); 6) levetiracetam (20 mg/kg/day); […] Injections are given every other day with intervening washout days. Each AI rat is treated with all six conditions within 23 days of testing. […]

[1] = levetiracetam blood plasma levels in aged-impaired rats; format: in vivo; settings: rat
Experimental: Rats: Blood is drawn from aged-impaired rats by cardiac puncture during perfusion after a 28-day levetiracetam treatment period and is sent for analysis of levetiracetam plasma levels by MedTox Laboratories in St. Paul, Minn.
The levetiracetam blood levels in the aged-impaired rats treated with daily levetiracetam doses of 10 mg/kg and 60 mg/kg can be use to estimate the levetiracetam blood level of its daily dose of 20 mg/kg. This extrapolation gives an estimated levetiracetam blood level of 7.6 mcg/ml for the 20 mg/kg daily dose.

concentration at 28 days ([1]; 20 mg/kg daily dose, extrapolated from 10 and 60 mg/kg, read-out: estimated levetiracetam blood level): 7600 ng/mL
concentration at 28 days ([1]; other: osmotic minipumps, 10 mg/kg/day, 28 days, SEM±0.255, read-out: mean levetiracetam blood plasma level): 3800 ng/mL
concentration at 28 days ([1]; other: osmotic minipumps, 20 mg/kg daily dose, extrapolated from 10 and 60 mg/kg, read-out: estimated levetiracetam blood level): 7600 ng/mL
Structure (SMILES): CC[C@@H](C(N)=O)N1CCCC1=O [levetiracetam, (2S)-2-(2-oxopyrrolidin-1-yl) butanamide]
average no. of errors ± SEM in retention test (aged-impaired (AI) rats; 5 mg/kg/day i.p., t(9)=2.18, p=0.057): 0.75±0.32
average no. of errors ± SEM in retention test (aged-impaired (AI) rats; 10 mg/kg/day i.p., t(9)=2.37, p=0.042): 0.80±0.27
performance of AI rats in the radial maze task (aged-impaired (AI) rats; levetiracetam 20 mg/kg): fails to improve the performance
reducing the number of errors in the radial arm maze (aged-impaired (AI) rats; 1.25 mg/kg i.p.): not at 1.25 mg/kg or 2.5 mg/kg
reducing the number of errors in the radial arm maze (aged-impaired (AI) rats; 2.5 mg/kg i.p.): not at 1.25 mg/kg or 2.5 mg/kg
reducing the number of errors in the radial arm maze (aged-impaired (AI) rats; 5-10 mg/kg i.p.): effective in reducing the number of errors
